Two molecules from US11254717B2, “Antimicrobial peptide Sparamosin from Scylla paramamosain and application thereof” (priority 2018, dated 2022) can be followed below.

Values after ≈ are worked out from the molar mass of the structure shown. Ends that are not written are not given here. Peptide text beside a SMILES is read from it.

The test system of data set [1] is normal human liver cell line (L02 cell line). In words: Cytotoxicity, MTS-PMS assay. In kind it is cell-based. The settings on record: normal cultured human hepatocytes. As for the experimental part:
(§1) The cytotoxicity effect of synthetic Sparamosin26-54 was evaluated using normal mouse liver cell line (AML12 cell line) and normal human liver cell line (L02 cell line).
(§2) (1) AML12 or L02 cells were harvested, and the cell concentration was adjusted to 10^5 cells/mL.
(§3) (2) 100 μL of AML12 or L02 cells were seeded in 96-wells and incubated at 37° C.
(§4) (3) Cells were treated with different concentrations of Sparamosin26-54 (0, 0.1, 1, 10, 100 μg/mL) for 24 h at 37° C.
(§5) (4) Cells were treated with 20 μL of MTS-PMS reagent for another 2 hours, and then the absorbance value of each well was measured at 492 nm (see FIG. 4).
On the technique in general: Formazan colour is commonly taken as a measure of viable cells.

Data set [2] deals with normal mouse liver cell line (AML12 cell line). In words: Cytotoxicity, MTS-PMS assay. Particulars: normal cultured mouse hepatocytes. In kind it is cell-based. The protocol: as §1, §2, §3, §4, §5
The test system of data set [3] is Corynebacterium glutamicum.
Data set [4] deals with various Gram-positive bacteria and Gram-negative bacteria.

On to `CSCC[C@H](NC(=O)[C@H](CS)NC(=O)[C@@H](NC(=O)[C@H](Cc1ccccc1)NC(=O)[C@H](CC(N)=O)NC(=O)[C@H](CC(C)C)NC(=O)[C@H](CCCNC(=N)N)NC(=O)[C@H](CS)NC(=O)[C@H](CCCNC(=N)N)NC(=O)CNC(=O)[C@H](CC(C)C)NC(=O)[C@H](Cc1ccccc1)NC(=O)[C@H](CC(=O)O)NC(=O)[C@H](CCCNC(=N)N)NC(=O)[C@H](CCCCN)NC(=O)[C@H](Cc1ccc(O)cc1)NC(=O)[C@H](CS)NC(=O)[C@H](CCCCN)NC(=O)[C@H](CCCCN)NC(=O)[C@H](CCCNC(=N)N)NC(=O)[C@H](CS)NC(=O)[C@@H]1CCCN1C(=O)[C@H](CC(N)=O)NC(=O)[C@@H]1CCCN1C(=O)CNC(=O)[C@H](CC(C)C)NC(=O)CN)[C@@H](C)O)C(=O)N[C@@H](Cc1ccccc1)C(=O)NCC(=O)O` [Sparamosin26-54] (H-GLGPNPCRKKCYKRDFLGRCRLNFTCMFG-OH; N-terminus and C-terminus assumed), for which the cytotoxic effect result in [1] and in data set [2] was “no cytotoxic effect” in each case. Besides, the “MBC: minimum bactericidal concentration” value was determined as 24 µM (≈ 81.2 µg/mL) in the data set on Bacillus cereus; 12 µM (≈ 40.6 µg/mL) in the data set with Staphylococcus aureus; 6 µM (≈ 20.3 µg/mL) against Pseudomonas fluorescens; 12 µM (≈ 40.6 µg/mL) with Escherichia coli; 12 µM (≈ 40.6 µg/mL) in the data set with Cryptococcus neoformans; 3 µM (≈ 10.1 µg/mL) against Pichia pastoris (GS115). Moreover, the “MBC: minimum bactericidal concentration” value is 6 µM (≈ 20.3 µg/mL) in [3]; 12 µM (≈ 40.6 µg/mL) in the data set on Pseudomonas aeruginosa; greater than 48 µM against Candida albicans; 24 µM (≈ 81.2 µg/mL) in the data set with Aspergillus niger; greater than 48 µM in the data set on Aspergillus flavus; 12 µM (≈ 40.6 µg/mL) in the data set with Fusarium oxysporum. The entries for the “MBC: minimum bactericidal concentration” value against Aspergillus ochraceus, in the data set on Aspergillus fumigatus and with Neurospora crasa were 48 µM (≈ 162 µg/mL), 24 µM (≈ 81.2 µg/mL) and 48 µM (≈ 162 µg/mL), respectively. The “MIC: minimum inhibitory concentration” value lay in the range of 6 to 12 µM in the data set on Bacillus cereus; 3 to 6 µM against Staphylococcus aureus; 3 to 6 µM with Pseudomonas fluorescens; 6 to 12 µM against Escherichia coli; 1.5 to 3 µM against Cryptococcus neoformans; 1.5 to 3 µM in the data set on Pichia pastoris (GS115). In addition, the “MIC: minimum inhibitory concentration” value is 1.5 to 3 µM in data set [3]; 6 to 12 µM in the data set on Pseudomonas aeruginosa; greater than 48 µM with Candida albicans; 6 to 12 µM in the data set with Aspergillus niger; greater than 48 µM in the data set on Aspergillus flavus; 3 to 6 µM in the data set on Aspergillus ochraceus. The “MIC: minimum inhibitory concentration” value against Aspergillus fumigatus is 12 to 24 µM. The “minimum inhibitory concentration (MIC) value” in data set [4] is 3 to 12 µM. This molecule also had an MIC value against various molds of 6 to 24 µM.
Turning to “APVPDPDSEQSNISEVLKVQHSIFSGLGPNPCRKKCYKRDFLGRCRLNFTCMFG (cysteines drawn unpaired) [Sparamosin]”, the “MBC: minimum bactericidal concentration” value was greater than 48 µM with Bacillus cereus; 48 µM with Staphylococcus aureus; 24 µM against Pseudomonas fluorescens; 24 µM in the data set on Escherichia coli; greater than 48 µM with Cryptococcus neoformans; 24 µM with Pichia pastoris (GS115). In addition, the “MIC: minimum inhibitory concentration” value with Bacillus cereus was 24 to 48 µM; against Staphylococcus aureus it was 12 to 24 µM; with Pseudomonas fluorescens, 12 to 24 µM; against Escherichia coli, 12 to 24 µM; with Cryptococcus neoformans, greater than 48 µM; in the data set on Pichia pastoris (GS115), 6 to 12 µM.
